Source: ChEMBL document CHEMBL1268853, “Characterization of Acetylcholinesterase Inhibitory Constituents from Annona glabra Assisted by HPLC Microfractionation” (J Nat Prod, 2010)
Counter-ions that a name gives are not always drawn.

Molecular target: Acetylcholinesterase (Electrophorus electricus, UniProt O42275)
Experiment: Inhibition of electric eel AChE by Ellman's method

Sequence of Acetylcholinesterase (O42275 whole entry): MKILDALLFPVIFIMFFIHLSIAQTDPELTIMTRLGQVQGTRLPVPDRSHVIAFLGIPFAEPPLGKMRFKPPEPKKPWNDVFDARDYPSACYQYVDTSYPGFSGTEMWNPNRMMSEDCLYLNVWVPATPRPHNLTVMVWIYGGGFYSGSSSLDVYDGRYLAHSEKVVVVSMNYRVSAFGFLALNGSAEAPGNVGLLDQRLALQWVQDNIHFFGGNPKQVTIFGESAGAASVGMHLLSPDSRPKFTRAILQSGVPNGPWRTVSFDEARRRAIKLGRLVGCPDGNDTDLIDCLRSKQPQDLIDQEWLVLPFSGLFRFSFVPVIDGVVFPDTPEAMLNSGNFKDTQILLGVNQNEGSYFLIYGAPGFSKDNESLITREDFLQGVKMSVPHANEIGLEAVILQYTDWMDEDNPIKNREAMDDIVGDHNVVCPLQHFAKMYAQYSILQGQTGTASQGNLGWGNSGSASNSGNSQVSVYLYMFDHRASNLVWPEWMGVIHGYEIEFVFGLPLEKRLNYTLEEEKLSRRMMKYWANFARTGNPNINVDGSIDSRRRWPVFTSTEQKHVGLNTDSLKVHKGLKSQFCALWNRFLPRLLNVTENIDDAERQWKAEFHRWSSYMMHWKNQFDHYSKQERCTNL

Structure (SMILES)	IC50 [µM]
COc1cccc2c1C(=O)c1c(C)cc(=O)[nH]c1C2=O	23.4
COc1cc2c(cc1O)C=[N+](C)CC2	16
COc1ccc(C[C@H]2c3cc(O)c(OC)cc3CCN2C)cc1O	72.2
COc1cc2c(cc1O)C[N@+]1(C)CCc3cc(OC)c(OC)cc3[C@@H]1C2	8.4
COc1cc2c3c(c1O)-c1c(ccc(OC)c1OC)C[C@@H]3[N+](C)(C)CC2	> 140
COc1c(O)cc2c3c1-c1ccccc1C[C@H]3NCC2	123
COc1cc2c(cc1O)C[C@H]1NCCc3cc4c(c-2c31)OCO4	> 117
O[C@@H]1c2ccccc2-c2c3c(cc4c2[C@H]1NCC4)OCO3	> 126
COc1c(O)c2c3c(c1OC)-c1cc4c(cc1C[C@@H]3NCC2)OCO4	76.9
COc1c(O)c2c3c(c1OC)-c1ccccc1C[C@H]3NCC2	110
COc1cc2c(cc1O)C=[N+]1CCc3cc(OC)c(OC)cc3[C@@H]1C2	154
COc1cc2c(cc1OC)[C@@H]1Cc3ccc(O)c(OC)c3C=[N+]1CC2	30.8
COc1cc2ccnc3c2c(c1OC)-c1cc2c(cc1C3=O)OCO2	> 150
COc1cc2c(cc1OC)-c1cc3ccc(O)c(OC)c3c[n+]1CC2 [DEHYDROCORYDALMINE TRIFLUOROACETATE]	96.5
COc1cc2c[n+]3c(cc2cc1O)-c1cc(OC)c(OC)cc1CC3 [DEHYDROCORYTENCHINE TRIFLUOROACETATE]	97.6
O=C1c2ccccc2-c2c3c(cc4ccnc1c24)OCO3 [LIRIODENINE]	> 150
COc1cc2ccnc3c2c(c1OC)-c1ccccc1C3=O [LYSICAMINE]	16.1
COc1cc2c(cc1O)-c1cc3cc(OC)c(OC)cc3c[n+]1CC2 [PSEUDOCOLUMBAMINE TRIFLUOROACETATE]	5
COc1cc2c(cc1OC)-c1cc3cc(OC)c(OC)cc3c[n+]1CC2 [PSEUDOPALMATINE TRIFLUOROACETATE]	1.8
